From publication PMC9453727 (Cell Discovery, 2022)

Tests used:
[1] = in vivo, po; cited from earlier work
in vitro = details: PAMPA
[2] = pH 5, permeability class PAMPA-GIT

| SMILES | half-life [1] | Papp (in vitro; [2]) | Papp (in vitro; pH 5, Papp PAMPA-GIT, pH 5.0) | Papp (in vitro; pH 6.2, Papp PAMPA-GIT, pH 6.2) | Papp (in vitro; pH 7.4, Papp PAMPA-GIT, pH 7.4) |
| --- | --- | --- | --- | --- | --- |
| CC(C)(C)[C@H](NC(=O)C(F)(F)F)C(=O)N1C[C@H]2[C@@H]([C@H]1C(=O)N[C@H](C#N)C[C@@H]1CCNC1=O)C2(C)C [nirmatrelvir] | ~ 2 h |  |  |  |  |
| Cc1cc(=O)n(-c2ccccc2)n1C [Antipyrine] |  | < 1 ×10⁻⁶ cm/s |  |  |  |
| NC(=O)N1c2ccccc2C=Cc2ccccc21 [Carbamazepine] |  | > 20 ×10⁻⁶ cm/s | 135 ×10⁻⁶ cm/s | 158 ×10⁻⁶ cm/s | 160 ×10⁻⁶ cm/s |
